Key:
IL-17a = IL-17a ELISA of maternal sera and placenta/decidua extract; type: in vivo, mouse; conditions: for maternal serum IL-17a: serum at E14.5-E15.5, vs PBS
Description: Cell preparation, Flow cytometry, ELISA. Embryos at each implantation site were dissected in ice-cold HBSS containing Ca^2+ and Mg^2+. Myometrium was first peeled off of the decidua and embryos were discarded. Dissected decidual and placental tissues were then minced and enzymatically dissociated in HBSS containing 0.28 Wunsch units (WU)/mL Liberase (Roche) and 30 μg/ml DNase I (Roche) for 30 min at 37° C. with intermittent mixing. Digested tissues were washed in PBS containing 5 mM EDTA and 5% fetal bovine serum and then incubated again in the same buffer for 15 min at 37° C. prior to filtration through a cell strainer. After separation on a discontinuous 40% & 80% Percoll gradient, the mononuclear cell fraction was treated with ACK lysis buffer (Lonza). Mononuclear cells (1×10^6 cells/mL) were stimulated with phorbol 12-myristate 13-acetate (PMA, 50 ng/mL; Sigma), ionomycin (500 ng/mL; Sigma) in T cell media: RPMI 1640 (Invitrogen) supplemented with 10% (v/v) heat-inactivated FBS (Hyclone), 50 U penicillin-streptomycin (Invitrogen), 2 mM glutamine, and 50 μM β-mercaptoethanol. Cell culture supernatant was used for ELISA analyses. For flow cytometry, cells were incubated for 5 h with PMA, ionomycin and GolgiStop (BD). Intracellular cytokine staining was performed according to the manufacturer's protocol (Cytofix/Cytoperm buffer set from BD with alexa647-conjugated anti-IL-17a (eBioscience) and PE-conjugated anti-IFN-γ). LSR II (BD Biosciences) and FlowJo software (Tree Star) were used for flow cytometry and analysis. Dead cells were excluded using the Live/Dead fixable aqua dead cell stain kit (Invitrogen). Placenta/decidua extract were prepared by homogenizing samples in Tissue Extraction Reagent I (Invitrogen, FN0071) in the presence of protease inhibitor cocktail (Roche, 11873580001) on ice using pestles. The homogenates were centrifuged at 4° C. at 13,000 rpm for 20 min, and the supernatants were aliquotted and frozen at −80° C. For ELISA with sera and placenta/decidua extract, IL-6 (Ebioscience), IL-17a (Biolgened), and IL-10 (BD) were measured according to the manufacturer's protocol.
Cell preparation, Flow cytometry, ELISA Embryos at each implantation site were dissected in ice-cold HBSS containing Ca2+ and Mg2+ (Gibco). Myometrium was first peeled off of the decidua and embryos were discarded. Dissected decidual and placental tissues were then minced and enzymatically dissociated in HBSS containing 0.28 Wunsch units (WU)/mL Liberase (Roche) and 30 μg/mL DNase I (Roche) for 30 min at 37° C. with intermittent mixing. Digested tissues were washed in PBS containing 5 mM EDTA and 5% fetal bovine serum and then incubated again in the same buffer for 15 min at 37° C. prior to filtration through a cell strainer. After separation on a discontinuous 40% & 80% Percoll gradient, the mononuclear cell fraction was treated with ACK lysis buffer (Lonza). Mononuclear cells (1×10^6 cells/mL) were cultured for 24 h with or without phorbol 12-myristate 13-acetate (PMA, 50 ng/mL; Sigma) and ionomycin (500 ng/mL; Sigma) in T cell media: RPMI 1640 (Invitrogen) supplemented with 10% (v/v) heat-inactivated FBS (Hyclone), 50 U penicillin-streptomycin (Invitrogen), 2 mM glutamine, and 50 μM β-mercaptoethanol. Cell culture supernatant was used for ELISA analyses. Unstimulated cells were used to prepare total RNA for qPCR analyses. For flow cytometry, cells were incubated for 5 h with PMA, ionomycin and GolgiStop (BD). […]

[1] = test system: offspring of pregnant mice (MIA mouse model); experiment: Marble burying test in adult offspring; type: in vivo
Source text: Maternal Immune Activation. Mice were mated overnight and females were checked daily for the presence of seminal plugs, noted as embryonic day 0.5 (E0.5). […] Each dam was returned to its cage and left undisturbed until the birth of its litter. All pups remained with the mother until weaning on postnatal day 21 (P21), at which time mice were group housed at maximum 5 per cage with same-sex littermates. […]
Marble burying test. […] At the end of a 15-min exploration period, mice were gently removed from the testing cages and the number of marbles buried was recorded. A marble burying index was scored as 1 for marbles covered >50% by bedding, 0.5 for ˜50% covered, or 0 for anything less. […]
Marble burying test One week following the social approach task, male mice were acclimated for 0.5-1 h in separate clean holding cages. […] At the end of a 15-min exploration period, mice were gently removed from the testing cages and the number of marbles buried was recorded. A marble burying index was scored as 1 for marbles covered >50% by bedding, 0.5 for ˜50% covered, or 0 for anything less. […]

**Q.** With poly(I:C) as the molecule, how does the “IL-17a in placenta/decidua extracts” value (IL-17a; PBS- or poly(I:C)-treated mothers) read?
**A.** could not be detected

**Q.** What about the “time until serum IL-17a is detected after injection” value (IL-17a; poly(I:C) at E12.5) of the same molecule?
**A.** 2 to 3 days

**Q.** And the “maternal serum IL-17a” value (IL-17a; poly(I:C) at E12.5)?
**A.** strong increase

**Q.** What about the “maternal serum IL-17a” value (IL-17a; poly(I:C) at E12.5, listed as Poly(I:C)) of the same molecule?
**A.** further increase

**Q.** And the “serum IL-17a at later embryonic stages” value (IL-17a; poly(I:C) injected mothers)?
**A.** continue to rise until E19.5

**Q.** And the “serum IL-17a at E14.5” value (IL-17a; poly(I:C) into pregnant dams lacking IL-6 (IL-6 KO))?
**A.** failed to increase

**Q.** And the “marble burying in adult offspring” value ([1]; poly(I:C)-injected vs PBS-injected mothers)?
**A.** enhanced marble burying

B1: recombinant IL-17a protein: Recombinant mouse IL-17a cytokine (R&D), injected into the fetal brain ventricle (protein, UniProt Q62386 26-158, looked up)
Interleukin-17A: AAIIPQSSACPNTEAKDFLQNVKVNLKVFNSLGAKVSSRRPSDYLNRSTSPWTLHRNEDPDRYPSVIWEAQCRHQRCVNAEGKLDHHMNSVLIQQEILVLKREPESCPFTFRVEKMLVGVGCTCVASIVRQAA
**Q.** Which marble burying behavior ([1]; intra-ventricular injection at E14.5, compared with sham injection) does the source give for B1 here?
**A.** increased marble burying behavior

B2: recombinant IL-6: carrier-free recombinant mouse IL-6 (R&D) (protein, UniProt P08505 25-211, looked up)
Interleukin-6: FPTSQVRRGDFTEDTTPNRPVYTTSQVGGLITHVLWEIVEMRKELCNGNSDCMNNDDALAENNLKLPEIQRNDGCYQTGYNQEICLLKISSGLLEYHSYLEYMKNNLKDNKKDKARVLQRDTETLIHIFNQEVKDLHKIVLPTPISNALLTDKLESQKEWLRTKTIQFILKSLEEFLKVTLRSTRQT
**Q.** B2 was tested. Which “maternal serum IL-17a at E14.5” value (IL-17a; injection into wild-type (WT) mothers) did it give?
**A.** sufficient to induce IL-17a levels comparable to those of poly(I:C)-injected WT mothers

Source: patent US20180371076A1, “MATERNAL TH17 CELLS AND PSYCHIATRIC DISORDERS” (New York University, priority 2017, published 2018)
